{"source": "paper doi:10.1101/2025.11.03.686228", "about": "“Design of Tissue-Selective PROTACs Through Recruiting E3 Ligase Scaffolding Protein MAGEA11” (bioRxiv, 2025)", "target": "T1, BRD4 (first bromodomain, BRD4-BD1) (Homo sapiens, UniProt O60885)", "T1 construct": "BRD4-BD1 (first bromodomain)", "experiment": "fluorescence polarization competitive inhibition assay", "format": "binding"}
{"smiles": "Cc1sc2c(c1C)C(c1ccc(Cl)cc1)=N[C@@H](CC(=O)NCCOCCOCCOCCOCCOCCOCCOCCOCc1cn(-c3ccc4c(NCCCNCc5ccc6[nH]ccc6c5)ccnc4c3)nn1)c1nnc(C)n1-2", "note": "[105B]", "values": [{"measurement": "Ki", "value": "14.9 ± 0.97", "unit": "nM"}]}
